From US20060057104A1, “Methods for stimulating tlr irf3 pathways for inducing anti-microbial, anti-inflammatory and anticancer responses” (THE Regents of the University of California Office of the …, priority 2002, published 2006)

Legend:
BMMs = assay: Q-PCR gene expression in BMMs stimulated with TLR agonists (Example 1); assay type: cell-based, murine; details: for immediate early upregulation of IFNβ, IP10 and RANTES: BMMs, lipid A 1 ng/mL, PGN 10 μg/mL, poly I:C 1 μg/ml, CpG 100 nM, 1 hr
Experimental: (C) BMM's were stimulated with the following TLR-agonists: lipid A (1 ng/mL), peptidoglycan (PGN) (10 μg/mL), poly I:C (I μg/ml), or CpG (100 nM) for 30 min, and cell extracts were used for an in vitro kinase assay using GST-c-jun as a substrate (upper left), identical simulations were repeated for I hr, and RNA was harvested, and used for Q-PCR analysis.
(A) BMMs were stimulated for the indicated time points with the following TLR-agonists: lipid A (1 ng/ml), PGN (20 μg/ml), poly I:C (1 μg/ml), or CpG (100 nM), and RNA was harvested and used for Q-PCR analysis.
Murine bone marrow-derived macrophages (BMMs) were differentiated from marrow from 6-10 week old C57B/6 mice as previously described (Chin, A. I., Dempsey, P. W., Beuhn, K., Miller, J. F., Xu, Y., and Cheng, G. (2002), Nature 416, 190-194). BMMs were maintained in 1× DMEM, 10% fetal bovine serum, 1% penicillin/streptomycin, and 30% L929 conditioned medium, and purity was assayed to be 94-99% CD11b^+. The RAW 264.7 murine macrophage cell line (ATCC: TIB-71) was maintained in 1× DMEM with 10% fetal bovine serum and 1% penicillin/streptomycin. […]
RNA was isolated for both Northern blotting and quantitative real-time PCR (Q-PCR) using a standard guanidium isothiocyanate method. […] For Q-PCR, RNA was quantitated and 2 μg of RNA was used to make cDNA templates using Superscript II (Invitrogen) according the manufactuors instruction with either oligo-dT or random hexamer as primers. […]
We then investigated the TLR-specificity of gene expression in BMMs using specific agonists for TLR4 (lipid A), TLR2 (peptioglycan), TLR3 (poly I:C) and TLR9 (CpG). In order to account for differences in binding affinity and receptor expression, the concentrations of TLR ligands used for stimulation were titrated to produce roughly equivalent activation of the JNK pathway as determined by GST-c-Jun in vitro kinase assay (FIG. 2C, upper left).

MHV68 = MHV68 replication in BMMs treated with TLR ligands (immunoblot of viral proteins); assay type: cell-based, Murine gammaherpesvirus 68; details: MOI=5, 48 hours, 10, 1 or 0.1 ng/ml lipid A, 100 nM CpG, 10 μg/ml PGN, 1, 0.1 or 0.01 μg/ml poly I:C
Experimental: (E) BMMs were infected with MHV68 (moi=5) and simultaneously treated with the indicated TLR ligands (100 nM CpG; 10, 1, or 0.1 ng/ml lipid A; 10 μg/ml PGN; or 1, 0.1, or 0.01 μg/ml poly I:C). After 48 hr, cells were harvested and analyzed for MHV68 replication proteins by immunoblotting using rabbit anti-MHV68 antibodies.
Murine gammaherpesvirus 68 (MHV68) was produced and titered as previously described (Wu, T.-T., Tong, L., Rickabaugh, T., Speck, S., and Sun, R. (2001), J. Virol. 75, 9262-9273). For infection of macrophages, cells were simultaneously treated with PAMPs and infected with MHV68 at an MOI of 5. Following an incubation period of 48 hours cells were lysed in Laemmli buffer and 10% of total volume was subjected to SDS-PAGE, transferred to nitrocellulose, and MHV68 proteins detected by western blotting.
BMMs were simultaneously infected with MHV68 (MOI=5) and treated with various TLR ligands (10, 1 or 0.1 ng/ml lipid A, 100 nM CpG, 10 μg/ml PGN or 1, 0.1, or 0.01 μg/ml poly I:C) for 48 hours, and replication of viral proteins was then assayed by western blot analysis. […] This was true whether BMMs were treated with 10 or 20 μg/ml PGN and the inhibition was always considerably weaker than that caused by either 1 ng/ml lipid A or 1 μg/ml poly I:C.

[1] = test system: RAW 264.7 murine macrophage cell line; assay: Apoptosis by TUNNEL assay in RAW 264.7 cells, laser scanner cytometry; assay type: cell-based; details: RAW 264.7, two 24 h intervals; 10 ng/ml Lipid A or 10 mg/ml poly I:C
Experimental: The RAW 264.7 murine macrophage cell line was treated for two 24 h intervals with media alone (control), 10 ng/ml Lipid A (Lipid A) or 10 mg/ml poly I:C. In addition, as a positive control for apoptosis, another set of cells was treated with 3% H2O2 for 2 hours. Following fixation and permeablization, apoptosis was measured by the TUNNEL assay using the Death kit (Roche). Apoptotic cells are visualized by an increase in fluorescence (FITC) and detected by laser scanner cytometry (LSC). […] The cell cycle is divided into G1 (red), S-phase (yellow) and G2/M (blue). Thus, TLR3/4 activation promotes apoptosis at all stages of the cell cycle (FIG. 16).

Substance	gene induction in TLR4-null BMMs (BMMs; BMMs from C57BL/10ScCr mice (null mutation in TLR4 gene))	immediate early upregulation of IFNβ, IP10 and RANTES (BMMs)	inhibition of MHV68 replication (MHV68)	increase in apoptotic cells [1]
lipid A	No gene induction	immediate early upregulation	significantly inhibit MHV68 replication in a concentration dependent manner	10 fold
poly I:C		immediate early upregulation	significantly inhibit MHV68 replication in a concentration dependent manner	100 fold
